Experimental data published in patent US20200064333A1, “ECM COMPOSITION, TUMOR MICROENVIRONMENT PLATFORM AND METHODS THEREOF” (MITRA RXDX INDIA PRIVATE LIMITED, priority 2011, published 2020).

Key:
[1] = test system: Breast Cancer patient tumor tissue; assay: "Clinical Response Predictor" explant analysis (M-score), Breast cancer; type: cell-based, human; design: key: 0-100 composite M-score from proprietary algorithm
Source text: “Clinical Response Predictor” is a patient segregation tool for matching drugs to patients and patients to the drugs in Oncology. “Clinical Response Predictor” explant model is a personalized functional assay that helps predict the response of the patient under investigation to a set of approved drugs for his/her type of cancer. This is done using fresh patient tumor tissue from solid cancers in a specially coated 96/384 well plate. The plates are coated with specific set of Extra Cellular Matix. Further, patient derived autologous ligands are added to the culture. Angiogenic factors are added to maintain tumor vasculature. In case of immunomodulator drugs, autologus immune cells are added to the culture. In the case of haematological malignancies, patient plasma is cultured in the 96/384 well format. The test is carried out in multiplicates to take into account the heterogeneous nature of cancer. “Clinical Response Predictor” results are measured by both kinetic as well as end-point assays. Cell Viability, Cell death, Cell proliferation, cell metabolism, senescence, tumor morphology are some of the parameters assessed. Each of these parameters is measured by more than one assay. For e.g.: Cell Viability is measured by WST, ATP uptake and Glucose uptake assays. Cell Proliferation and Metabolism is measured by Ki67, PCNA (proliferating nuclear cell antigen), ATP/ADP ratio and Glucose uptake. Cell death is assessed by LDH, Activated Caspase 3, Activated Caspase 8 & Nitric Oxide Synthase and TUNEL. Tumor morphology is assessed by H&E to look at the tumor cell content, size of the tumor cells, ratio of viable cells/dead cells, ratio of tumor cells/normal cells, and tumor/macrophage ratio, nuclear size and density and integrity, apoptotic bodies and mitotic figures. Results from each of the assays are expressed in numeric form and is converted using a proprietary algorithm into a single 0-100 metric called “M-score”.
Alternatively, when the tumor source is a xenograft, tumor from mice is excised and further subjected to explant analysis as described below. In another embodiment, the tumor is obtained and is implanted into the mice, thereafter it is allowed to grow, then excised and then subjected to the instant “Clinical Response Predictor” analysis. Post obtaining the, tissue sample, it is divided for obtaining various inputs from a) explant assay, b) Histology based assays like IHC (immunohistochemistry)/H&E, and c) efficacy analysis from primary tumor derived xenografts. • A) Tissue sample given for explant analysis is sliced using Leica Vibratome to generate sections of about 100-3000 μm thickness. These sections are cultured in plates coated with the cancer type specific ECM composition in quadruplicate with media containing autologous sera and also various drugs optionally, for a period of about 48-96 hours. Media with drug and enriched with serum/plasma/PBMCs/serum derived ligands is changed every 24 hours. Post this period MTT/WST analysis is done to assess percent cell viability (end point assay). The supernatant from the media culture is removed every 24 hrs and assessed for proliferation (using ATP and glucose utilization experiments) and cell death (by assessment of lactate dehydrogenase assays and caspase-3 and caspase 8 measurements) to give kinetic response trends. Results are quantified against a drug untreated control. […] The tissue sections both treated and untreated are also given for histological evaluation at the end of the culture period. • B) The tissues given for histological evaluation are assessed for apoptosis by TUNEL and activated caspase 3 assay. Also cell proliferation is assayed for standard proliferation markers like Ki67.

[2] = test system: Glioblastoma patient tumor tissue; assay: "Clinical Response Predictor" explant analysis (M-score), Glioblastoma; type: cell-based, human; details: Glioblastoma patient tumor sample, Table 3
Source text: (§1) “Clinical Response Predictor” is a patient segregation tool for matching drugs to patients and patients to the drugs in Oncology. “Clinical Response Predictor” explant model is a personalized functional assay that helps predict the response of the patient under investigation to a set of approved drugs for his/her type of cancer. This is done using fresh patient tumor tissue from solid cancers in a specially coated 96/384 well plate. The plates are coated with specific set of Extra Cellular Matix. Further, patient derived autologous ligands are added to the culture. Angiogenic factors are added to maintain tumor vasculature. In case of immunomodulator drugs, autologus immune cells are added to the culture. […] “Clinical Response Predictor” results are measured by both kinetic as well as end-point assays. Cell Viability, Cell death, Cell proliferation, cell metabolism, senescence, tumor morphology are some of the parameters assessed. Each of these parameters is measured by more than one assay. For e.g.: Cell Viability is measured by WST, ATP uptake and Glucose uptake assays. Cell Proliferation and Metabolism is measured by Ki67, PCNA (proliferating nuclear cell antigen), ATP/ADP ratio and Glucose uptake. Cell death is assessed by LDH, Activated Caspase 3, Activated Caspase 8 & Nitric Oxide Synthase and TUNEL. […]

[3] = test system: Glioblastoma, Ca-Ovary, Ca-Breast, Ca-Oesophagus, Ca-Pancreas, Ca-Stomach; assay: Clinical outcome of patients (PETCT or CT), other solid cancers; type: in vivo, human; details: evaluated at the end of 6-8 months by PETCT or CT
Protocol: The figure details that the tumor tissue from the patient is analyzed using explant read out, primary Human tumor xenograft readout and then subjected to a variety of genomic and proteomic profiling accompanied by histological analysis and final correlation with patient clinical data for the chemotherapy regimen. All these input parameters together generate the “Clinical Response Predictor”. The integrated preclinical prediction model is designed based on functional “Clinical Response Predictor” screening platform and M Score prompted by it. Tumor tissues are collected from clinics prior to initiation of treatment. Clinical outcome (PERCIST/RECIST) data are collected before and after completion of 3 cycles of chemotherapy (top of the FIG. 1). Concomitantly, after resection/biopsy tumors are treated with same Standards of Care [SOC] or targeted drugs as that received by patients using an “Clinical Response Predictor” driven explants platform. This leads to the extensive functional and molecular characterization (middle of the FIG. 1). […] The combined data from this platform is integrated for determining the M-score and thereafter correlated with PERCIST/RECIST obtained from patient after 3rd to 6th cycle of therapy.
The “Clinical Response Predictor” outcome (M-score) is then compared with clinical outcome.

[4] = test system: Pancreatic Cancer patient tumor tissue; assay: "Clinical Response Predictor" explant analysis (M-score), Pancreatic cancer; type: cell-based, human
Source text: as §1

[5] = test system: Colon Cancer patient tumor tissue; assay: "Clinical Response Predictor" explant analysis (M-score), Colon / Colorectum cancer; type: cell-based, human
Source text: “Clinical Response Predictor” is a patient segregation tool for matching drugs to patients and patients to the drugs in Oncology. “Clinical Response Predictor” explant model is a personalized functional assay that helps predict the response of the patient under investigation to a set of approved drugs for his/her type of cancer. This is done using fresh patient tumor tissue from solid cancers in a specially coated 96/384 well plate. The plates are coated with specific set of Extra Cellular Matix. Further, patient derived autologous ligands are added to the culture. Angiogenic factors are added to maintain tumor vasculature. In case of immunomodulator drugs, autologus immune cells are added to the culture. In the case of haematological malignancies, patient plasma is cultured in the 96/384 well format. The test is carried out in multiplicates to take into account the heterogeneous nature of cancer. “Clinical Response Predictor” results are measured by both kinetic as well as end-point assays. Cell Viability, Cell death, Cell proliferation, cell metabolism, senescence, tumor morphology are some of the parameters assessed. Each of these parameters is measured by more than one assay. For e.g.: Cell Viability is measured by WST, ATP uptake and Glucose uptake assays. Cell Proliferation and Metabolism is measured by Ki67, PCNA (proliferating nuclear cell antigen), ATP/ADP ratio and Glucose uptake. Cell death is assessed by LDH, Activated Caspase 3, Activated Caspase 8 & Nitric Oxide Synthase and TUNEL. Tumor morphology is assessed by H&E to look at the tumor cell content, size of the tumor cells, ratio of viable cells/dead cells, ratio of tumor cells/normal cells, and tumor/macrophage ratio, nuclear size and density and integrity, apoptotic bodies and mitotic figures. […]
Alternatively, when the tumor source is a xenograft, tumor from mice is excised and further subjected to explant analysis as described below. […] Results are quantified against a drug untreated control. […]

[6] = test system: Liver Cancer patient tumor tissue; assay: "Clinical Response Predictor" explant analysis (M-score), Liver cancer; type: cell-based, human; details: for M-Score: liver
Source text: “Clinical Response Predictor” is a patient segregation tool for matching drugs to patients and patients to the drugs in Oncology. “Clinical Response Predictor” explant model is a personalized functional assay that helps predict the response of the patient under investigation to a set of approved drugs for his/her type of cancer. This is done using fresh patient tumor tissue from solid cancers in a specially coated 96/384 well plate. The plates are coated with specific set of Extra Cellular Matix. Further, patient derived autologous ligands are added to the culture. Angiogenic factors are added to maintain tumor vasculature. In case of immunomodulator drugs, autologus immune cells are added to the culture. In the case of haematological malignancies, patient plasma is cultured in the 96/384 well format. The test is carried out in multiplicates to take into account the heterogeneous nature of cancer. “Clinical Response Predictor” results are measured by both kinetic as well as end-point assays. Cell Viability, Cell death, Cell proliferation, cell metabolism, senescence, tumor morphology are some of the parameters assessed. Each of these parameters is measured by more than one assay. For e.g.: Cell Viability is measured by WST, ATP uptake and Glucose uptake assays. Cell Proliferation and Metabolism is measured by Ki67, PCNA (proliferating nuclear cell antigen), ATP/ADP ratio and Glucose uptake. Cell death is assessed by LDH, Activated Caspase 3, Activated Caspase 8 & Nitric Oxide Synthase and TUNEL. Tumor morphology is assessed by H&E to look at the tumor cell content, size of the tumor cells, ratio of viable cells/dead cells, ratio of tumor cells/normal cells, and tumor/macrophage ratio, nuclear size and density and integrity, apoptotic bodies and mitotic figures. Results from each of the assays are expressed in numeric form and is converted using a proprietary algorithm into a single 0-100 metric called “M-score”. […]
Alternatively, when the tumor source is a xenograft, tumor from mice is excised and further subjected to explant analysis as described below. […] The supernatant from the media culture is removed every 24 hrs and assessed for proliferation (using ATP and glucose utilization experiments) and cell death (by assessment of lactate dehydrogenase assays and caspase-3 and caspase 8 measurements) to give kinetic response trends. Results are quantified against a drug untreated control. […] The tissue sections both treated and untreated are also given for histological evaluation at the end of the culture period. • B) The tissues given for histological evaluation are assessed for apoptosis by TUNEL and activated caspase 3 assay. […]

[7] = test system: Stomach Cancer patient tumor tissue; assay: "Clinical Response Predictor" explant analysis (M-score), Stomach cancer; type: cell-based, human
Source text: as §1

[8] = test system: Head and Neck Cancer patient tumor tissue; assay: "Clinical Response Predictor" explant analysis (M-score / Sensitivity Index), Head and Neck cancer; type: cell-based, human; details: Right pyriform sinus
Source text: as §1

[9] = test system: Ovary Cancer patient tumor tissue; assay: "Clinical Response Predictor" explant analysis (M-score), Ovary cancer; type: cell-based, human
Source text: as §1

[10] = Example 13.11: patient, Breast Cancer, Regional Lymph node (R) Breast, T3N1M0, metastasis and recc
[11] = Example 13.14: patient, T4N0M0, primary

Compound: CC(=O)O[C@H]1C(=O)[C@@]2(C)[C@H]([C@H](OC(=O)c3ccccc3)[C@]3(O)C[C@H](OC(=O)[C@H](O)[C@@H](NC(=O)c4ccccc4)c4ccccc4)C(C)=C1C3(C)C)[C@]1(OC(C)=O)CO[C@@H]1C[C@@H]2O [Paclitaxel]
- M-Score [1, 10]: 11

Compound: COc1cccc2c1C(=O)c1c(O)c3c(c(O)c1C2=O)C[C@@](O)(C(=O)CO)C[C@@H]3O[C@H]1C[C@H](N)[C@H](O)[C@H](C)O1 [Doxorubicin]
- M-Score [1, 10]: 17

Compound: CCCCCOC(=O)Nc1nc(=O)n([C@@H]2O[C@H](C)[C@@H](O)[C@H]2O)cc1F [Capecitabine]
- M-Score [1, 10]: 26

Compound: Cn1nnc2c(C(N)=O)ncn2c1=O [Temozolomide]
- Sensitivity Index [2]: 49
- Clinical readout RECIST ([3]; Glioblastoma patient): 2

Compound: C#Cc1cccc(Nc2ncnc3cc(OCCOC)c(OCCOC)cc23)c1 [Erlotinib]
- M-Score ([4]; Example 13.7: patient, tumor site liver, metastasis): 21
- M-Score ([4]; Example 13.8: patient, pancreas, T2N0M0, primary): 14

Compound: Avastin
- M-Score ([5]; Example 13.15: patient, Colorectum Cancer, perineal mass, T3N0M0, recurrent): 20
- M-Score ([1]; Example 13.18: patient, Breast Cancer with mets, Regional lymph node (Rt Br), T3N1M1, recurrent): 18
- M-Score ([1]; Example 13.19: patient, Breast Cancer with SCLN mets, supraclaviculus lymph node, TXNXM2, metastatic): 14

Compound: CNC(=O)c1cc(Oc2ccc(NC(=O)Nc3ccc(Cl)c(C(F)(F)F)c3)cc2)ccn1 [Sorafenib]
- "Clinical Response Predictor" analysis suggestion ([6]; Example 13.13: patient, T3NxM1, metastasis): not an optimal therapeutic option
- M-Score ([6]; Example 13.13: patient, T3N×M1, metastasis): 16
- "Clinical Response Predictor" analysis suggestion [6, 11]: an optimal therapeutic option
- M-Score [6, 11]: 46

Compound: CC(C)(C#N)c1cc(Cn2cncn2)cc(C(C)(C)C#N)c1 [Anastrozole]
- M-Score [1, 10]: 20

Compound: CCN(CC)CCNC(=O)c1c(C)[nH]c(/C=C2\C(=O)Nc3ccc(F)cc32)c1C [Sunitinib]
- M-Score ([7]; Example 13.5: patient, pylorus of stomach, metastatic lymph node recc): 25
- M-Score ([7]; Example 13.6: patient, stomach, recc): 09

Compound: N.N.[Cl][Pt][Cl] [Cisplatin]
- M-Score ([8]; Example 13.1: patient, T3N0M0, primary): 64
- M-Score ([8]; Example 13.2: patient, T3/4N2cM0, metastatic lymph node): 39

Compound: Panitumumab
- M-Score ([5]; Example 13.3: patient, Colon Cancer, rectosigmoid colon, Stage IV, metastasis): 19
- M-Score ([5]; Example 13.4: patient, Colon Cancer, perineal mass (Ca-Rectum), T3N0M0, Recc): 27

Compound: CCC1=C[C@@H]2CN(C1)Cc1c([nH]c3ccccc13)[C@@](C(=O)OC)(c1cc3c(cc1OC)N(C)[C@H]1[C@@](O)(C(=O)OC)[C@H](OC(C)=O)[C@]4(CC)C=CCN5CC[C@]31[C@@H]54)C2 [Vinorelbine]
- M-Score [1, 10]: 19
- Clinical readout RECIST ([3]; Ca-Breast patients): 2

Compound: Nc1ccn([C@@H]2O[C@H](CO)[C@@H](O)C2(F)F)c(=O)n1 [Gemcitabine]
- M-Score [1, 10]: 21

Compound: CC(=O)O[C@@]12CO[C@@H]1C[C@H](O)[C@@]1(C)C(=O)[C@H](O)C3=C(C)[C@@H](OC(=O)[C@H](O)[C@@H](NC(=O)OC(C)(C)C)c4ccccc4)C[C@@](O)([C@@H](OC(=O)c4ccccc4)[C@H]21)C3(C)C [Docetaxel]
- M-Score ([9]; Example 13.10: patient, primary): 19
- M-Score ([9]; Example 13.9: patient, metastasis): 26
- M-Score [1, 10]: 26
